{"source": "patent US9163018B2", "about": "“Method of treatment of age-related macular degeneration (AMD)” (Prana Biotechnology Limited, priority 2006, dated 2015)", "key": {"Aβ 1-42": {"target": "T1, Aβ 1-42 (Homo sapiens, UniProt P05067)", "T1 construct": "The reaction solutions contained Aβ 1-42 at concentrations", "T1 sequence (P05067 672-713 limits assumed)": "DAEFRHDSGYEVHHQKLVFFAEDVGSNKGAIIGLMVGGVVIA", "assay": "Fluorometric H2O2 assay (inhibition of Abeta H2O2 production)", "format": "biochemical", "conditions": "concentration required to inhibit 50% of Abeta H2O2 production; read-out: H2O2 IC50", "method_in_brief": "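Reactions in PBS pH 7.4 at 37 C for 60 min, containing Aβ, copper and test compound. H2O2 output read as fluorescence of HRP-coupled deacetylated DCF. Fluorescence converted to H2O2 concentration via H2O2 standards.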"}, "[1]": {"test_system": "M17 human neuroblastoma cells", "assay": "Cytotoxicity, M17 human neuroblastoma cells", "format": "cell-based", "conditions": "for Cytotox (% viable) M17 cells at 1 μM: 1 μM test compound; for Cytotox (% viable) M17 cells at 10 μM: 10 μM test compound", "description": "Assay 3. MTS Assay for Cell Viability\nCell viability is determined using the MTS assay. Culture medium is replaced with fresh neurobasal medium plus B27 supplements minus antioxidants. 1/10th volume MTS solution (Cell Titre 96 Aqueous One, Promega Corporation) and incubated at 37° C., 2 hrs. 200 microliter aliquots are measured with a spectrophotometer at 560 nm."}, "[2]": {"target": "T2, Abeta:Zn (25:50 μM) Synthetic Aggregations (Homo sapiens, UniProt P05067)", "T2 construct": "PB Compound Mediated Dissolution of Aggregated Abeta 1-42; purchased Keck Laboratory, Yale University School of Medicine", "T2 sequence (P05067 672-713 limits assumed)": "as above", "assay": "Disaggregation of Abeta:Zn synthetic aggregates (ThT fluorescence)", "format": "biochemical", "conditions": "for Disaggregation % Aggregate reduction at 5 μM: 5 μM test compound; for EC50: Abeta:Zn 25:50 μM aggregates", "method_in_brief": "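ThT signal (excitation 450 nm, emission 480 nm) measured after compounds at final 1, 5, 10, 25 and 50 μM acted 2 h at 37 degrees on preformed aggregates. Those aggregates came from 24 h rotating incubation of 25 μM Abeta1-42, 50 μM ZnCl2 and 50 μM ThT in PBS pH 6.6.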"}, "[3]": {"conditions": "mouse, in vivo, 10 days"}, "[4]": {"test_system": "dityrosine oligomerization", "assay": "CuTy: inhibition of dityrosine oligomerization", "format": "biochemical", "conditions": "referenced to in-house standard (set as 100% inhibition)"}, "[5]": {"assay": "Mice plasma concentration after oral dose", "format": "in vivo", "conditions": "for Mice plasma concentration: 30 min to 4 h after single or repeat oral dose of 30 mg/kg"}, "Aβ deposits": {"test_system": "Aβ deposits", "conditions": "9 weeks; for Tg Mice % difference from control in Amyloid plaque abundance / Tg Mice % difference from control in insoluble brain amyloid burden / Tg Mice % difference from control in soluble brain amyloid burden: daily oral gavage 30 mg/kg, 13-14 months old transgenic mice"}, "[6]": {"assay": "Toxicity, visual observations in mice", "conditions": "duration and visual observations"}, "[7]": {"test_system": "primary cortical neuronal cultured cells", "assay": "Test compound cytotoxicity, MTS assay, primary cortical neuronal cultures", "format": "cell-based, mouse", "method_in_brief": "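Primary cortical neurons were cultured five days in Neurobasal/B27, then exposed on day six to compounds (from 2.5 mM DMSO stocks) in medium minus antioxidants, in triplicate for 4 days at 37° C. Viability was measured by MTS, 2 h at 37° C, absorbance at 560 nm.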"}}, "note": "Read-outs that look alike come from different tables or passages of the source."}
{"smiles": "O=C(NCc1ccc(F)cc1)c1cnc2c(O)c(I)ccn2c1=O", "note": "[PB 1158]", "values": [{"measurement": "IC50", "setting": "Aβ 1-42", "value": 990, "unit": "nM"}, {"measurement": "Cytotox (% viable) M17 cells at 1 μM", "setting": "[1]", "value": 104.7, "unit": "%"}, {"measurement": "Cytotox (% viable) M17 cells at 10 μM", "setting": "[1]", "value": 56, "unit": "%"}, {"measurement": "Disaggregation % Aggregate reduction at 5 μM", "setting": "[2]", "value": 10, "unit": "%"}, {"measurement": "EC50", "setting": "[2]", "value": "> 20000", "unit": "nM"}, {"measurement": "Toxicity at 30 mg/kg", "setting": "[3]", "value": "7 days, 4/4 deaths"}]}
{"smiles": "CCCCc1cnc2c(O)c(I)ccn2c1=O", "note": "[PB 1145]", "values": [{"measurement": "IC50", "setting": "Aβ 1-42", "value": 660, "unit": "nM"}, {"measurement": "Cytotox (% viable) M17 cells at 1 μM", "setting": "[1]", "value": 101.7, "unit": "%"}, {"measurement": "Cytotox (% viable) M17 cells at 10 μM", "setting": "[1]", "value": 58.7, "unit": "%"}, {"measurement": "Disaggregation % Aggregate reduction at 5 μM", "setting": "[2]", "value": 28, "unit": "%"}, {"measurement": "EC50", "setting": "[2]", "value": 7200, "unit": "nM"}, {"measurement": "Toxicity at 30 mg/kg", "setting": "[3]", "value": "10 days, 2/4 death"}]}
{"smiles": "CCc1cnc2c(O)c(I)ccn2c1=O", "note": "[PB 1127]", "values": [{"measurement": "IC50", "setting": "Aβ 1-42", "value": 280, "unit": "nM"}, {"measurement": "Cytotox (% viable) M17 cells at 1 μM", "setting": "[1]", "value": 82.5, "unit": "%"}, {"measurement": "Cytotox (% viable) M17 cells at 10 μM", "setting": "[1]", "value": 23.3, "unit": "%"}, {"measurement": "CuTy % inhibition of dityrosine oligomerization", "setting": "[4]", "value": 25, "unit": "% inhibit"}, {"measurement": "Disaggregation % Aggregate reduction at 5 μM", "setting": "[2]", "value": 55, "unit": "%"}, {"measurement": "EC50", "setting": "[2]", "value": 4500, "unit": "nM"}, {"measurement": "Mice plasma concentration at 10 mg/kg", "setting": "[5]; oral dose 10 mg/kg", "value": "At 10 mg/kg: Up to 7082 ng/ mL ng/mL"}, {"measurement": "Tg Mice effect on brain amyloid burden and plaque at 10 mg/kg", "setting": "Aβ deposits; daily oral gavage 10 mg/kg", "value": "At 10 mg/kg No effect"}, {"measurement": "Toxicity at 10 mg/kg", "setting": "[6]; 10 mg/kg", "value": "At 10 mg/kg 10 days, none"}]}
{"smiles": "O=c1c2ccc(I)c(O)c2ncn1-c1ccc(F)cc1F", "note": "[PB 1157]", "values": [{"measurement": "IC50", "setting": "Aβ 1-42", "value": 380, "unit": "nM"}, {"measurement": "Cytotox (% viable) M17 cells at 1 μM", "setting": "[1]", "value": 90.3, "unit": "%"}, {"measurement": "Cytotox (% viable) M17 cells at 10 μM", "setting": "[1]", "value": 80.3, "unit": "%"}, {"measurement": "Disaggregation % Aggregate reduction at 5 μM", "setting": "[2]", "value": 45, "unit": "%"}, {"measurement": "EC50", "setting": "[2]", "value": 8100, "unit": "nM"}, {"measurement": "Toxicity at 30 mg/kg", "setting": "[3]", "value": "6 days, 2/4 deaths"}]}
{"smiles": "CCCCNC(=O)c1cnc2c(O)c(I)ccn2c1=O", "note": "[PB 1160]", "values": [{"measurement": "IC50", "setting": "Aβ 1-42", "value": 750, "unit": "nM"}, {"measurement": "Cytotox (% viable) M17 cells at 1 μM", "setting": "[1]", "value": 85.3, "unit": "%"}, {"measurement": "Cytotox (% viable) M17 cells at 10 μM", "setting": "[1]", "value": 63.4, "unit": "%"}, {"measurement": "CuTy % inhibition of dityrosine oligomerization", "setting": "[4]", "value": "CuTy: 95% inhibition"}, {"measurement": "Disaggregation % Aggregate reduction at 5 μM", "setting": "[2]", "value": 56.8, "unit": "%"}, {"measurement": "EC50", "setting": "[2]", "value": 4050, "unit": "nM"}, {"measurement": "Mice plasma concentration", "setting": "[5]", "value": "Up to 27,598 ng/mL"}, {"measurement": "Tg Mice % difference from control in Amyloid plaque abundance", "setting": "Aβ deposits", "value": "decrease"}, {"measurement": "Tg Mice % difference from control in insoluble brain amyloid burden", "setting": "Aβ deposits", "value": "No change"}, {"measurement": "Tg Mice % difference from control in soluble brain amyloid burden", "setting": "Aβ deposits", "value": "−25", "unit": "%"}, {"measurement": "Toxicity at 30 mg/kg", "setting": "[6]", "value": "10 days, none"}]}
{"smiles": "CCCc1cnc2c(O)cccn2c1=O", "note": "[PB 1149]", "values": [{"measurement": "IC50", "setting": "Aβ 1-42", "value": 300, "unit": "nM"}, {"measurement": "Cytotox (% viable) Neuronal cells at 1 μM", "setting": "[7]; 1 μM test compound", "value": 86.2, "unit": "%"}, {"measurement": "Cytotox (% viable) Neuronal cells at 10 μM", "setting": "[7]; 10 μM test compound", "value": 12.4, "unit": "%"}, {"measurement": "Cytotox (% viable) M17 cells at 1 μM", "setting": "[1]", "value": 79.1, "unit": "%"}, {"measurement": "Cytotox (% viable) M17 cells at 10 μM", "setting": "[1]", "value": 45.2, "unit": "%"}, {"measurement": "CuTy % inhibition of dityrosine oligomerization", "setting": "[4]", "value": "CuTy: 95% inhibition"}, {"measurement": "Disaggregation % Aggregate reduction at 5 μM", "setting": "[2]", "value": 49, "unit": "%"}, {"measurement": "EC50", "setting": "[2]", "value": 5000, "unit": "nM"}, {"measurement": "Mice plasma concentration", "setting": "[5]", "value": "Up to 690 ng/ml ng/mL"}, {"measurement": "Tg Mice % difference from control in Amyloid plaque abundance", "setting": "Aβ deposits", "value": "−45", "unit": "%"}, {"measurement": "Tg Mice % difference from control in insoluble brain amyloid burden", "setting": "Aβ deposits", "value": "No change"}, {"measurement": "Tg Mice % difference from control in soluble brain amyloid burden", "setting": "Aβ deposits", "value": "No change"}, {"measurement": "Toxicity at 30 mg/kg", "setting": "[6]", "value": "10 days, none"}]}
{"smiles": "CC(C)n1cnc2c(O)c(I)ccc2c1=O", "note": "[PB 1153]", "values": [{"measurement": "IC50", "setting": "Aβ 1-42", "value": 320, "unit": "nM"}, {"measurement": "Disaggregation % Aggregate reduction at 5 μM", "setting": "[2]", "value": 53, "unit": "%"}, {"measurement": "EC50", "setting": "[2]", "value": 4700, "unit": "nM"}, {"measurement": "Mice plasma concentration", "setting": "[5]", "value": "Up to 277 ng/ml ng/mL"}, {"measurement": "Toxicity at 30 mg/kg", "setting": "[3]", "value": "10 days, 1/4 deaths"}]}
{"smiles": "O=c1c2ccc(I)c(O)c2ncn1CC1CC1", "note": "[PB 1120]", "values": [{"measurement": "IC50", "setting": "Aβ 1-42", "value": 280, "unit": "nM"}, {"measurement": "Cytotox (% viable) M17 cells at 1 μM", "setting": "[1]", "value": 106.9, "unit": "%"}, {"measurement": "Cytotox (% viable) M17 cells at 10 μM", "setting": "[1]", "value": 62, "unit": "%"}, {"measurement": "CuTy % inhibition of dityrosine oligomerization", "setting": "[4]", "value": "CuTy: 25% inhibition"}, {"measurement": "Disaggregation % Aggregate reduction at 5 μM", "setting": "[2]", "value": 47.5, "unit": "%"}, {"measurement": "EC50", "setting": "[2]", "value": 5600, "unit": "nM"}, {"measurement": "Mice plasma concentration", "setting": "[5]", "value": "Up to 2508 ng/ mL ng/mL"}, {"measurement": "Tg Mice % difference from control in Amyloid plaque abundance", "setting": "Aβ deposits", "value": "Decrease"}, {"measurement": "Tg Mice % difference from control in insoluble brain amyloid burden", "setting": "Aβ deposits", "value": "No change"}, {"measurement": "Tg Mice % difference from control in soluble brain amyloid burden", "setting": "Aβ deposits", "value": "No change"}, {"measurement": "Toxicity at 30 mg/kg", "setting": "[6]", "value": "10 days, none"}]}
{"smiles": "CC(C)c1cnc2c(O)c(I)ccn2c1=O", "note": "[PB 1142]", "values": [{"measurement": "IC50", "setting": "Aβ 1-42", "value": 370, "unit": "nM"}, {"measurement": "Cytotox (% viable) M17 cells at 1 μM", "setting": "[1]", "value": 96.7, "unit": "%"}, {"measurement": "Cytotox (% viable) M17 cells at 10 μM", "setting": "[1]", "value": 44.2, "unit": "%"}, {"measurement": "Disaggregation % Aggregate reduction at 5 μM", "setting": "[2]", "value": 42, "unit": "%"}, {"measurement": "EC50", "setting": "[2]", "value": 7100, "unit": "nM"}, {"measurement": "Toxicity at 30 mg/kg", "setting": "[3]", "value": "10 days, 1/4 death"}]}
{"smiles": "CCCCc1cnc2c(O)cccn2c1=S", "note": "[PB 1148]", "values": [{"measurement": "IC50", "setting": "Aβ 1-42", "value": 410, "unit": "nM"}, {"measurement": "Disaggregation % Aggregate reduction at 5 μM", "setting": "[2]", "value": 70, "unit": "%"}, {"measurement": "EC50", "setting": "[2]", "value": 1550, "unit": "nM"}, {"measurement": "Mice plasma concentration", "setting": "[5]", "value": "Up to 57 ng/ml ng/mL"}, {"measurement": "Toxicity at 30 mg/kg", "setting": "[3]", "value": "7 days, 2/4 deaths"}]}
